Data reported in PubChem BioAssay AID222 (DTP/NCI, 2004).
Values joined by “and” are separate entries in the source; they are usually repeats but may differ in a detail not shown here. Equal entries are not always repeated. Toxic doses and inconclusive results are not listed. How the source made its calls: active means survival T/C of 150% or more; inactive means T/C below 125% in these data.

System: C57BL/6 mice, intracerebral ependymoblastoma, median survival T/C
Assay: NCI In Vivo Anticancer Drug Screen. Data for tumor model Ependymoblastoma (intracerebral) in C57BL/6 mice
Details: endpoint: median survival time, higher = longer survival
Experimental: The antitumor activity of compounds was measured in mice bearing transplantable tumors. Survival or tumor size were measured and the results are expressed as the measurement made in the treated group (T) divided by the measurement made in the vehicle treated control group (C). The tumor model used in this assay is Ependymoblastoma (intracerebral) in C57BL/6 mice

[1] = dose: 1.0 mg/kg/injection, schedule: Q01DX005 (ip), vehicle: Klucel (hydroxypropylcellulose) (HPC)
[2] = dose: 2.0 mg/kg/injection, schedule: Q01DX005 (ip), vehicle: Klucel (hydroxypropylcellulose) (HPC)
[3] = dose: 4.0 mg/kg/injection, schedule: Q01DX005 (ip), vehicle: Klucel (hydroxypropylcellulose) (HPC)
[4] = dose: 45.0 mg/kg/injection, schedule: Q01DX005 (ip), vehicle: saline with Tween-80
[5] = dose: 90.0 mg/kg/injection, schedule: Q01DX005 (ip), vehicle: saline with Tween-80
[6] = dose: 180.0 mg/kg/injection, schedule: Q01DX005 (ip), vehicle: saline with Tween-80
[7] = dose: 360.0 mg/kg/injection, schedule: Q01DX005 (ip), vehicle: saline with Tween-80
[8] = dose: 64.0 mg/kg/injection, schedule: Q01DX005 (ip), vehicle: saline with Tween-80
[9] = dose: 128.0 mg/kg/injection, schedule: Q01DX005 (ip), vehicle: saline with Tween-80
[10] = dose: 256.0 mg/kg/injection, schedule: Q01DX005 (ip), vehicle: saline with Tween-80
[11] = dose: 512.0 mg/kg/injection, schedule: Q01DX005 (ip), vehicle: saline with Tween-80
[12] = dose: 1024.0 mg/kg/injection, schedule: Q01DX005 (ip), vehicle: saline with Tween-80

Measured: T/C

COc1cc(NS(C)(=O)=O)ccc1Nc1c2ccccc2nc2ccccc12
inactive: [1] 93 % of control and 108 % of control | dose: 1.0 mg/kg/injection, schedule: Q01DX005 (ip), vehicle: saline + alcohol 93 % of control and 108 % of control and 116 % of control | dose: 1.0 mg/kg/injection, schedule: Q01DX005 (ip), vehicle: water 89 % of control and 110 % of control | [2] 98 % of control and 104 % of control | dose: 2.0 mg/kg/injection, schedule: Q01DX005 (ip), vehicle: saline + alcohol 94 % of control and 109 % of control and 112 % of control | dose: 2.0 mg/kg/injection, schedule: Q01DX005 (ip), vehicle: water 105 % of control and 108 % of control | [3] 112 % of control | dose: 4.0 mg/kg/injection, schedule: Q01DX005 (ip), vehicle: saline + alcohol 90 % of control and 98 % of control | dose: 4.0 mg/kg/injection, schedule: Q01DX005 (ip), vehicle: water 103 % of control and 107 % of control | dose: 4.0 mg/kg/injection, schedule: Q#A X002 (ip), vehicle: Klucel (hydroxypropylcellulose) (HPC) 89 % of control and 105 % of control | dose: 8.0 mg/kg/injection, schedule: Q01DX001 (ip), vehicle: Klucel (hydroxypropylcellulose) (HPC) 90 % of control and 96 % of control and 106 % of control | dose: 8.0 mg/kg/injection, schedule: Q01DX005 (ip), vehicle: Klucel (hydroxypropylcellulose) (HPC) 116 % of control | dose: 8.0 mg/kg/injection, schedule: Q#A X002 (ip), vehicle: Klucel (hydroxypropylcellulose) (HPC) 91 % of control and 92 % of control | dose: 16.0 mg/kg/injection, schedule: Q01DX001 (ip), vehicle: Klucel (hydroxypropylcellulose) (HPC) 104 % of control (2×) and 107 % of control | dose: 16.0 mg/kg/injection, schedule: Q01DX001 (oral), vehicle: Klucel (hydroxypropylcellulose) (HPC) 99 % of control and 113 % of control | dose: 16.0 mg/kg/injection, schedule: Q#A X002 (ip), vehicle: Klucel (hydroxypropylcellulose) (HPC) 90 % of control | dose: 32.0 mg/kg/injection, schedule: Q01DX001 (ip), vehicle: Klucel (hydroxypropylcellulose) (HPC) 89 % of control and 101 % of control and 107 % of control | dose: 32.0 mg/kg/injection, schedule: Q01DX001 (oral), vehicle: Klucel (hydroxypropylcellulose) (HPC) 108 % of control | dose: 32.0 mg/kg/injection, schedule: Q#A X002 (ip), vehicle: Klucel (hydroxypropylcellulose) (HPC) 89 % of control and 93 % of control | dose: 64.0 mg/kg/injection, schedule: Q01DX001 (ip), vehicle: Klucel (hydroxypropylcellulose) (HPC) 91 % of control | dose: 64.0 mg/kg/injection, schedule: Q01DX001 (oral), vehicle: Klucel (hydroxypropylcellulose) (HPC) 94 % of control and 97 % of control | dose: 64.0 mg/kg/injection, schedule: Q#A X002 (ip), vehicle: Klucel (hydroxypropylcellulose) (HPC) 89 % of control and 91 % of control | dose: 128.0 mg/kg/injection, schedule: Q01DX001 (oral), vehicle: Klucel (hydroxypropylcellulose) (HPC) 90 % of control and 102 % of control | dose: 256.0 mg/kg/injection, schedule: Q01DX001 (oral), vehicle: Klucel (hydroxypropylcellulose) (HPC) 91 % of control

O=C(CCBr)N1CCN(C(=O)CCBr)CC1
inactive: dose: 2.5 mg/kg/injection, schedule: Q01DX005 (ip), vehicle: saline with Tween-80 98 % of control | dose: 5.0 mg/kg/injection, schedule: Q01DX005 (ip), vehicle: saline with Tween-80 103 % of control | dose: 10.0 mg/kg/injection, schedule: Q01DX005 (ip), vehicle: saline with Tween-80 92 % of control | dose: 20.0 mg/kg/injection, schedule: Q01DX005 (ip), vehicle: saline with Tween-80 105 % of control | dose: 40.0 mg/kg/injection, schedule: Q01DX005 (ip), vehicle: saline with Tween-80 105 % of control | dose: 80.0 mg/kg/injection, schedule: Q01DX005 (ip), vehicle: saline with Tween-80 111 % of control

ClC1C(Cl)C(Cl)C(Cl)C(Cl)C1Cl (stereo unspecified)
inactive: [4] 96 % of control and 87 % of control | [5] 94 % of control and 98 % of control | [6] 107 % of control | [7] 96 % of control and 103 % of control

CCCCCCCCCCCCCC(=O)OC12CC(C)C3(O)C(C=C(CO)C(O)C4(O)C(=O)C(C)=CC43)C1C2(C)C (stereo unspecified)
inactive: dose: 0.13 mg/kg/injection, schedule: Q01DX005 (ip), vehicle: acetone 100 % of control | dose: 0.25 mg/kg/injection, schedule: Q01DX005 (ip), vehicle: acetone 97 % of control | dose: 0.5 mg/kg/injection, schedule: Q01DX005 (ip), vehicle: acetone 86 % of control

C1OC1CN1CCN(CC2CO2)CC1 (stereo unspecified)
inactive: dose: 3.12 mg/kg/injection, schedule: Q01DX005 (ip), vehicle: saline 101 % of control | dose: 6.25 mg/kg/injection, schedule: Q01DX005 (ip), vehicle: saline 97 % of control | dose: 25.0 mg/kg/injection, schedule: Q01DX005 (ip), vehicle: saline 98 % of control

Nc1ccc(C(=O)O)c(O)c1
inactive: dose: 67.5 mg/kg/injection, schedule: Q01DX005 (ip), vehicle: saline with Tween-80 103 % of control | dose: 135.0 mg/kg/injection, schedule: Q01DX005 (ip), vehicle: saline with Tween-80 94 % of control | dose: 270.0 mg/kg/injection, schedule: Q01DX005 (ip), vehicle: saline with Tween-80 86 % of control

CC(=O)Nc1ccc(/C=N/NC(N)=S)cc1
inactive: [4] 98 % of control | [5] 93 % of control and 102 % of control | [6] 92 % of control and 104 % of control | [7] 96 % of control and 98 % of control | dose: 720.0 mg/kg/injection, schedule: Q01DX005 (ip), vehicle: saline with Tween-80 105 % of control and 110 % of control

Cc1cn(C2CC(O)C(CO)O2)c(=O)[nH]c1=O (stereo unspecified)
inactive: [8] 92 % of control and 97 % of control | dose: 100.0 mg/kg/injection, schedule: Q01DX005 (ip), vehicle: saline with Tween-80 91 % of control | [9] 90 % of control and 105 % of control | dose: 200.0 mg/kg/injection, schedule: Q01DX005 (ip), vehicle: saline with Tween-80 98 % of control | [10] 95 % of control and 87 % of control | dose: 400.0 mg/kg/injection, schedule: Q01DX005 (ip), vehicle: saline with Tween-80 96 % of control | [11] 100 % of control | dose: 800.0 mg/kg/injection, schedule: Q01DX005 (ip), vehicle: saline with Tween-80 98 % of control | [12] 100 % of control and 101 % of control | dose: 1600.0 mg/kg/injection, schedule: Q01DX005 (ip), vehicle: saline with Tween-80 98 % of control

Nc1ccnc(=O)[nH]1
inactive: [8] 95 % of control | [9] 90 % of control | [10] 104 % of control | [11] 87 % of control | [12] 107 % of control

Nc1nc([Se])c2ncn(C3OC(CO)C(O)C3O)c2n1 (stereo unspecified)
inactive: dose: 0.25 mg/kg/injection, schedule: Q01DX005 (ip), vehicle: Klucel (hydroxypropylcellulose) (HPC) 103 % of control and 106 % of control | dose: 0.5 mg/kg/injection, schedule: Q01DX005 (ip), vehicle: Klucel (hydroxypropylcellulose) (HPC) 107 % of control and 112 % of control | [1] 99 % of control and 101 % of control | [2] 100 % of control and 102 % of control and 112 % of control | [3] 88 % of control and 105 % of control and 112 % of control | dose: 4.0 mg/kg/injection, schedule: Q01DX005 (ip), vehicle: saline with Tween-80 96 % of control | dose: 4.0 mg/kg/injection, schedule: Q01DX005 (ip), vehicle: saline 100 % of control | dose: 8.0 mg/kg/injection, schedule: Q01DX005 (ip), vehicle: saline with Tween-80 100 % of control | dose: 8.0 mg/kg/injection, schedule: Q01DX005 (ip), vehicle: saline 98 % of control and 99 % of control | dose: 16.0 mg/kg/injection, schedule: Q01DX005 (ip), vehicle: Klucel (hydroxypropylcellulose) (HPC) 102 % of control and 103 % of control | dose: 16.0 mg/kg/injection, schedule: Q01DX005 (ip), vehicle: saline with Tween-80 113 % of control | dose: 16.0 mg/kg/injection, schedule: Q01DX005 (ip), vehicle: saline 106 % of control and 111 % of control | dose: 27.8 mg/kg/injection, schedule: Q## X006 (ip), vehicle: saline 108 % of control | dose: 32.0 mg/kg/injection, schedule: Q01DX005 (ip), vehicle: saline 116 % of control | dose: 32.0 mg/kg/injection, schedule: Q#A X002 (ip), vehicle: saline 95 % of control and 104 % of control | dose: 55.7 mg/kg/injection, schedule: Q## X006 (ip), vehicle: saline 112 % of control | dose: 64.0 mg/kg/injection, schedule: Q#A X002 (ip), vehicle: saline 101 % of control and 120 % of control | dose: 128.0 mg/kg/injection, schedule: Q#A X002 (ip), vehicle: saline 87 % of control
